Experimental data reported in US20090170869A1, “PIPERAZINE DERIVATIVE HAVING AFFINITY FOR THE HISTAMINE H3 RECEPTOR” (priority 2007, published 2009).

Tests used:
[1] = biological target: T1, brain histamine H3 receptor (Rattus norvegicus, UniProt Q9QYN8); experiment: Rat ex vivo binding studies - rat brain histamine H3 receptor occupancy ([3H]-R-α-methylhistamine); assay type: in vivo; conditions: for inhibition of [3H]-R-α-methylhistamine specific binding to the H3 receptor (surrogate for rat brain H3 receptor occupancy): 10 mg/kg oral; for specific binding of [3H]-R-α-methylhistamine to the H3 receptor: rats n=3, 10 mg/kg oral, mean ± SEM
T1 construct: from tissue; host or cells: cerebral cortex homogenate of adult male Lister hooded rats
Procedure: Ex vivo binding studies were carried out to determine brain histamine H3 receptor occupancy in rats at certain time points after oral administration of a test compound.
Adult male rats (Lister hooded 200-250 g, Charles River, UK) received vehicle (1% w/v aqueous methylcellulose) (control) or the test compound (10 mg/kg) by oral gavage (n=3 per group) and were sacrificed 1 or 4 hours following oral dosing. The 1 hour and 4 hour studies were not necessarily done on the same day. Terminal blood samples were collected and brains rapidly removed. Cerebral cortex tissue was dissected from half of each brain for ex vivo binding; the other half brain can be used for pharmacokinetic analysis of brain concentrations of each compound. All dissected tissue samples were snap-frozen in liquid nitrogen, and stored at −80° C. until use. The tissues were rapidly thawed and homogenised in approximately 30 volumes of ice cold assay reaction buffer. The assay reaction buffer contained 50 mM Tris-HCl (made up using Trizma pre-set crystals pH 7.7 @25° C., Sigma cat. No. T8068-250G) and 5 mM EDTA, with a final buffer pH of 7.2 to 7.8, usually about 7.4. The crude homogenate (600-800 μg/well) was then used to measure H3 receptor binding using [^3H]-R-α-methylhistamine as radioligand. Assays measuring total binding of [^3H]-R-α-methylhistamine consisted of 50 μl assay reaction buffer, 400 μl of homogenate (corresponding to 600-800 μg/well) and 50 μl of 2 nM R(−)α-Methyl[imidazole-2,5(n)-3H]histamine dihydrochloride ([^3H]-R-α-methylhistamine; specific activity, 24 Ci mmol^−1, Amersham Biosciences, catalogue no. TRK1017). Incubations with [^3H]-R-α-methylhistamine were for 45 min at 30° C. Non-specific binding of [^3H]-R-α-methylhistamine was determined in parallel using the same assay except that 50 μl of 10 μM imetit (an H3 receptor agonist, e.g. available from Tocris) was used instead of the 50 μl of assay reaction buffer. The experiments were terminated by rapid filtration through Whatman GF/B filters (pre-soaked in 0.3% v/v polyethyleneimine (PEI)), and then the filters were washed through with 4×5 ml of ice cold harvesting buffer. The harvesting buffer contained 50 mM Tris-HCl (from Trizma pre-set crystals pH 7.7 @ 25° C.) and 5 mM MgCl2, with a final buffer pH of 7.2 to 7.8, usually about 7.4. Filters were dried and added to vials each containing 4 ml Ultima Gold MV scintillation fluid (Hewlett Packard) and radioactivity determined by liquid scintillation spectrometry using a Packard Tri-Carb 2500TR liquid scintillation counter.
Specific binding of [^3H]-R-α-methylhistamine to the H3 receptor was determined by the subtraction of the value obtained for non-specific binding from the value obtained for total binding.
Protein concentrations were determined using the Bradford assay method (Bio-Rad
Protein Assay Dye Reagent Concentrate, catalogue no. 500-0006; from Bio-Rad Laboratories GmbH, Heidemannstrasse 164, 80939 Muenchen, Germany; or from Bio-Rad, York, UK) with bovine serum albumin as a standard. Specific radioactivity in the samples was corrected for protein (i.e. per microgram of protein).
The specific binding of [^3H]-R-α-methylhistamine to the H3 receptor is expressed as a mean (n=3 rats)±SEM (standard error of the mean), as a percentage of vehicle-treated control animals. Data is also expressed as inhibition of [^3H]-R-α-methylhistamine specific binding to the H3 receptor, as a surrogate measure for H3 receptor occupancy by the test compound, calculated as 100% minus the % mean specific binding of [^3H]-R-α-methylhistamine to the H3 receptor.

[2] = test system: Sprague Dawley rats; experiment: Toxicity Study 2: 7-day oral dose range-finding study in Sprague Dawley rats; assay type: in vivo, rat
Procedure: Three male rats and three female rats were added at 600 mg/kg/day and 3 female rats were added at 300 mg/kg/day for toxicokinetic evaluation.
The following endpoints/parameters were evaluated for toxicology animals: clinical observations, body weights, food consumption, selected haematology, selected clinical chemistry, liver weights, and selected macroscopic and microscopic observations. Toxicokinetic evaluation was performed on samples collected on Day 1 (300 and 600 mg/kg/day dosing) and Day 7 (300 mg/kg/day dosing only).

[3] = Plasma clearance in the pig-PET study; assay type: in vivo; conditions: Yorkshire-Landrace, iv, 50 ug/kg, 50 micrograms/kg i.v.
[4] = biological target: H3 receptor (Sus scrofa, UniProt A0A287B9V8); experiment: Pig-PET study with [11C]GSK189254: pig brain H3 receptor occupancy over time and kon-koff limited model; conditions: 50 micrograms/kg i.v.; for Measured H3 receptor occupancy @ 10 min: 10 minutes post administration; for Measured H3 receptor occupancy @ 2.5 h: 2.5 hours post administration; for Measured H3 receptor occupancy @ 6 h: 6 hours post administration; for Kd: Kd (koff/kon)
[5] = test system: male Sprague Dawley rats; experiment: Toxicity Study 1: 7-day oral repeat-dose study in male Sprague Dawley rats; assay type: in vivo, rat; conditions: for tolerability: male rats
Procedure: Three male rats were added at each non-zero dose level for toxicokinetic evaluation. All doses and concentrations, including analyte concentration in plasma, are expressed in terms of the parent “free base” compound.
The following endpoints/parameters were evaluated for toxicology animals: clinical observations, body weights, food consumption measurements, selected haematology and selected clinical chemistry results, liver weights, selected macroscopic and microscopic observations, and selected hepatic gene expression analysis. Toxicokinetic evaluation (serial profiling) was performed on samples collected from satellite animals on Days 1 and 7. For male rats dosed at 30 or 100 mg/kg/day, histopathology observations carried out were on kidneys, mesentery and mandibular lymph node only. For male rats dosed at 0 mg/kg/day (control) and 300 mg/kg/day, histopathology observations carried out were on adrenals, brain, heart, kidneys, liver, lung, mandibular lymph node, mesentery, stomach, testes, and thymus (except that mandibular lymph node observations were for 0 mg/kg/day dosed rats only).

[6] = rat, in vivo, po, 300 mg/kg/day
[7] = mean ± standard deviation, n=3 pigs

T1 sequence (Q9QYN8 whole entry): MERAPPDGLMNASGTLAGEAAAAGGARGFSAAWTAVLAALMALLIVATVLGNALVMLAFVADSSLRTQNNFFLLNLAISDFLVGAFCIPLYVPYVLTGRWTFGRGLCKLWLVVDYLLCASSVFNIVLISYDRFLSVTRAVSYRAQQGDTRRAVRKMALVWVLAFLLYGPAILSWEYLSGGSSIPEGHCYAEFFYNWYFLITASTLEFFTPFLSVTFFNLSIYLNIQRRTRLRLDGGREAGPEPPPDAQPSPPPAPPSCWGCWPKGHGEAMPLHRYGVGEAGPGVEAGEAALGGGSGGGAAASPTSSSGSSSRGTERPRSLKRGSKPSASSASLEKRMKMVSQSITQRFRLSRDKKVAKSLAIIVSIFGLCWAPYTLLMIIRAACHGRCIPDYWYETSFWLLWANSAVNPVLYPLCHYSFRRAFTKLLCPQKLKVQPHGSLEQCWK
Sequence of H3 receptor (A0A287B9V8 1-448): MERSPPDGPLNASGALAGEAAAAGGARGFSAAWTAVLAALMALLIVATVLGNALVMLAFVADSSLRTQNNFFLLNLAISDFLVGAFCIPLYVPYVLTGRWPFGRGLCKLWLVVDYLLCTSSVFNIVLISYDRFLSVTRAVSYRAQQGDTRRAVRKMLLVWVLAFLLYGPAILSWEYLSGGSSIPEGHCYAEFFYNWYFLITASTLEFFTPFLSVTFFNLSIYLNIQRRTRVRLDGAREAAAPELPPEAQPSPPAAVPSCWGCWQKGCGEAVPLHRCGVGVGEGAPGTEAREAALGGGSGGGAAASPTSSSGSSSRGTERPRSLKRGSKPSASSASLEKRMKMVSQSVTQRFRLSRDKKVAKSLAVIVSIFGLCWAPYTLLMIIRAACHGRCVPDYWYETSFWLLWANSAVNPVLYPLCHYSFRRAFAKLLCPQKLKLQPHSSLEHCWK

With `CC(C)N1CCN(C(=O)c2ccc(OC3CCOCC3)cc2)CC1.Cl` [Example E1] the “inhibition of [3H]-R-α-methylhistamine specific binding to the H3 receptor (surrogate for rat brain H3 receptor occupancy)” value ([1]; 1 hour after dosing) was “about 60%”, the “inhibition of [3H]-R-α-methylhistamine specific binding to the H3 receptor (surrogate for rat brain H3 receptor occupancy)” value ([1]; 4 hours after dosing) was “about 16%” and the “specific binding of [3H]-R-α-methylhistamine to the H3 receptor” value ([1]; sacrificed 1 hour after dosing) was 40%+2%. The “specific binding of [3H]-R-α-methylhistamine to the H3 receptor” value ([1]; sacrificed 4 hours after dosing) was 84%+6%, the tolerability ([2]; conclusion from Toxicity Studies 1 and 2: male and female rats, 7 days oral, doses up to 300 mg/kg/day) was “well tolerated or moderately well tolerated” and the tolerability ([2]; female rats, 300 mg/kg/day oral for 7 days (measured as free base)) was “moderately well tolerated”. The tolerability ([2]; male or female rats, 600 mg/kg/day oral (only 2 days)) was “not tolerated”, the “certain haematology and other clinical chemistry parameters” value [2, 6] was “increased” and the clinical signs [2, 6] was “chewing movements, rubbing chin on the cage floor, and certain other clinical signs”. For the same compound, the “glandular dilation of the fundic region of the stomach” value [2, 6] was “of minimal severity, was observed in most female rats”, the clearance ([3]; average model (from average plasma data)) was 38.3 mL/min and the clearance ([3]; mean of pigs 1-3) was 41.7 mL/min. The clearance ([3]; pig 1) was 48.3 mL/min, the clearance ([3]; pig 2) was 50 mL/min and the clearance ([3]; pig 3) was 30 mL/min. The “reduction in pig brain H3 receptor occupancy as compared to salt B” value ([4]; n=3 pigs, preliminary measurements) was “generally faster reduction”, the “Measured H3 receptor occupancy @ 10 min” value [4, 7] was 58% ± 4% and the “Measured H3 receptor occupancy @ 10 min” value ([4]; pig 1) was 61%. The “Measured H3 receptor occupancy @ 10 min” value ([4]; pig 2) was 54%, the “Measured H3 receptor occupancy @ 10 min” value ([4]; pig 3) was 58% and the “Measured H3 receptor occupancy @ 2.5 h” value [4, 7] was 30% ± 11%. For the same compound, the “Measured H3 receptor occupancy @ 2.5 h” value ([4]; pig 1) was 43%, the “Measured H3 receptor occupancy @ 2.5 h” value ([4]; pig 2) was 24% and the “Measured H3 receptor occupancy @ 2.5 h” value ([4]; pig 3) was 22%. The “Measured H3 receptor occupancy @ 6 h” value [4, 7] was 14% ± 14%, the “Measured H3 receptor occupancy @ 6 h” value ([4]; pig 1) was 30% and the “Measured H3 receptor occupancy @ 6 h” value ([4]; pig 2) was 7%. For the same compound, the “Measured H3 receptor occupancy @ 6 h” value ([4]; pig 3) was 5%, the Kd ([4]; average model (from average plasma data and average occupancy)) was 9.14 nM and the Kd ([4]; mean of pigs 1-3) was 9.08 nM. For the same compound, the Kd ([4]; pig 1, in vivo PK/RO model) was 4.47 nM, the Kd ([4]; pig 2, in vivo PK/RO model) was 9.35 nM and the Kd ([4]; pig 3, in vivo PK/RO model) was 13.4 nM. The tolerability ([5]; 300 mg/kg/day oral for 7 days (measured as free base)) was “moderately well tolerated”, the tolerability ([5]; 30 or 100 mg/kg/day oral for 7 days (measured as free base)) was “well tolerated” and the food consumption [5, 6] was “ca. 0.80 × pretreatment”. The “periarterial inflammatory cell infiltrate in the hilar region of the kidneys” value [5, 6] was “minimal in severity, was noted in the hilar region of the kidneys of all four male rats”.
